Results published in PubChem BioAssay (NCI).
“And” between values parts separate entries of the source, which are not always exact repeats. Equal entries are not always repeated.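 Step 1: Grow cells in 96-well plates. Step 2: Expose to compound for 48 hours at 5 concentrations. Step 3: Interpolate endpoints linearly; if unreached, use highest concentration. At the GI50, growth is halved. At the TGI there is no net growth.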

Tests used:
Assay in all cases: NCI tumour cell line growth inhibition, 48 h
PC-3 prostate = tested on: PC-3 prostate
MALME-3M melanoma = tested on: MALME-3M melanoma
T-47D breast = tested on: T-47D breast
MDA-MB-231 breast = tested on: MDA-MB-231 breast
OVCAR-3 ovarian = tested on: OVCAR-3 ovarian
HCT-116 colon = tested on: HCT-116 colon
ACHN renal = tested on: ACHN renal
SNB-75 CNS = tested on: SNB-75 CNS
RXF 393 renal = tested on: RXF 393 renal
IGROV1 ovarian = tested on: IGROV1 ovarian

SMILES | GI50 (PC-3 prostate) [µM] | TGI (PC-3 prostate) | GI50 (MALME-3M melanoma) [µM] | TGI (MALME-3M melanoma) [µM] | GI50 (T-47D breast) [µM] | TGI (T-47D breast) | GI50 (MDA-MB-231 breast) [µM] | TGI (MDA-MB-231 breast) | GI50 (OVCAR-3 ovarian) [µM] | TGI (OVCAR-3 ovarian) | GI50 (HCT-116 colon) [µM] | TGI (HCT-116 colon) | GI50 (ACHN renal) [µM] | TGI (ACHN renal) | GI50 (SNB-75 CNS) [µM] | TGI (SNB-75 CNS) [µM] | GI50 (RXF 393 renal) [µM] | TGI (RXF 393 renal) | GI50 (IGROV1 ovarian) [µM] | TGI (IGROV1 ovarian)
Cc1cncc(-c2nc(NCCc3c[nH]c4ccccc34)c3ncn(C(C)C)c3n2)c1 | 3.98 | 35.8 µM | 2.08 | 5.71 | 4.98 | 19.6 µM | 4.3 | 17.6 µM | 5.67 | 40.9 µM | 3.88 | > 100 µM | 3.76 | 13.5 µM | 4.87 | 21.1 | 2.54 | 11.2 µM | 5.94 | 22.1 µM
CC(=O)OC1CC2C(C)(C)CCC[C@]2(C)C2=C1C(O)=C(C(C)C)C(=O)C2=O (stereo partly specified) | 0.731 | 5.12 µM | 0.341 | 1.59 | 0.739 | 4.98 µM | 0.477 | 3.74 µM | 1.52 | 4.53 µM | 0.499 | 1.99 µM | 0.465 | 1.66 µM | 1.2 | 3.03 | 0.254 | 1.02 µM | 1.53 | 5.52 µM
COc1ccc(C2=NN(C=O)C(c3ccc(OS(=O)(=O)c4ccc(C)cc4)c(OC)c3)C2)cc1 (stereo unspecified) | 3.34 | > 100 µM | 7.09 | 49.3 | 2.27 | > 100 µM | 5.52 | > 100 µM | 5.6 | > 100 µM | 4.56 | > 100 µM | 10.1 | > 100 µM | 3.33 | 25.1 | 3.81 | 46.8 µM | 18.8 | > 100 µM
Cc1cc(I)cc(CNCCN2CCOCC2)c1O | > 100 | > 100 µM | > 100 | > 100 | 84.8 | > 100 µM | > 100 | > 100 µM | > 100 | > 100 µM | 37.2 | > 100 µM | > 100 | > 100 µM | 75.6 | > 100 | 48.5 | > 100 µM | 67 | > 100 µM
O=C(CN1CCN(CCN2C(=O)c3cccc4cccc(c34)C2=O)CC1)Nc1ccc2ncsc2c1 | 6.31 | 34.6 µM | 7.47 | 24 | 5.12 | 30.5 µM | > 100 | > 100 µM | 7.34 | 21.5 µM | 3.57 | 16.4 µM | 4.09 | 16.5 µM | 9.44 | > 100 | 6.32 | > 100 µM | 7.91 | > 100 µM
O=C(COc1cccc(/C=C2\COc3ccccc3C2=O)c1)c1ccccc1 | 2.11 | 5.16 µM | 13.1 | 28.2 | 2.53 | 6.04 µM | 10.6 | 22.9 µM | 2.39 | 5.12 µM | 2.12 | 4.08 µM | 2.14 | 5.18 µM | 11.5 | 24.7 | 2.48 | 9.29 µM | 2.18 | 3.96 µM
C=C[C@H]1CN2CCc3c([nH]c4c([C@@H]5CCCN5C)c(O)ccc34)[C@@H]2C[C@@H]1C[C@H]1c2[nH]c3ccccc3c2CCN1C | – | 3.05 µM and 2.88 µM | – | 3.41 | – | 3.26 µM and 3.91 µM | – | 3.16 µM and 3.46 µM | – | 2.8 µM and 3.16 µM | 1.13 | 2.68 µM and 1.48 µM | – | 3.39 µM and 3.1 µM and 3.32 µM | – | 2.47 | – | 0.913 µM and 1.52 µM | – | 2.67 µM and 2.75 µM
CCC(CC)c1cc(N[C@H]2CC[C@H](N)C2)n2nccc2n1 | 2.43 | > 100 µM | 2.07 | 6.24 | 0.759 | > 100 µM | 1.05 | > 100 µM | 1.01 | > 100 µM | 0.402 | > 100 µM | 1.44 | > 100 µM | 1.28 | 3.32 | 0.632 | 2.36 µM | 2.38 | > 100 µM
CN1CCN(Cc2ccc(NC(=O)c3cncc(C#Cc4c(N)ncc5c(F)cccc45)c3)cc2C(F)(F)F)CC1 | 0.787 | 1.6 µM | 0.443 | 1.23 | 1.94 | 6.38 µM | 0.522 | 1.17 µM | 0.828 | 1.53 µM | 0.517 | 1.2 µM | 0.708 | 1.36 µM | 0.827 | 1.55 | 0.799 | 1.54 µM | 0.726 | 1.61 µM
CCC(C)C(=O)O[C@H]1C(=O)O[C@@H]2C[C@H]3C(C)=CC(=O)[C@@H](O)[C@]3(C)[C@H]3[C@@H](O)[C@H](O)[C@@]4(C)OC[C@]32[C@@H]14 (stereo partly specified) | – | 0.0143 µM | – | < 0.024 | – | < 0.0105 µM | – | 0.388 µM | – | 0.0906 µM | – | < 0.01 µM | – | 0.566 µM | – | < 0.0299 | – | < 0.0345 µM | – | 0.0889 µM
NS(=O)(=O)c1ccc(N=Nc2c(O)[nH]c3ccc(C(=O)NCCc4cnc[nH]4)cc23)cc1 | > 25 | > 25 µM | > 25 | > 25 | > 25 | > 25 µM | > 25 | > 25 µM | > 25 | > 25 µM | > 25 | > 25 µM | > 25 | > 25 µM | > 25 | > 25 | > 25 | > 25 µM | > 25 | > 25 µM
O=C(Nc1ccn(C2CC(I)C(COC(c3ccccc3)(c3ccccc3)c3ccccc3)O2)c(=O)n1)c1ccccc1 (stereo unspecified) | – | 20.9 µM | – | 13.4 | – | 21.5 µM | – | 17.9 µM | – | 13 µM | – | 12.2 µM | – | 21.5 µM | – | 9.61 | – | 13.2 µM | – | 21.5 µM
NC(=O)c1cc(I)ccc1NC(=O)/C=C/c1ccccc1Cl | 0.572 | > 35.4 µM | 0.211 | 17.6 | 3.13 | > 90.8 µM | 1.63 | 31.9 µM | 0.271 | 0.638 µM | 0.465 | 11.9 µM | 2.44 | > 73.6 µM | 0.995 | 25.3 | 0.375 | 2.18 µM | 0.352 | 16.9 µM
CCNC(=O)Oc1ccc(/C(=C(\C)c2ccc(Cl)cc2)c2ccc(OCCN(CC)CC)cc2)cc1 | 3.89 | 14.1 µM | 1.7 | 3.61 | 2.16 | 12.5 µM | 3.02 | 8.17 µM | 4.56 | 16.7 µM | 2.04 | 4.86 µM | 3.74 | 14.6 µM | 2.45 | 18.4 | 2.35 | 9.84 µM | 3.66 | 15.3 µM
CON=C1C[C@]2(C[C@@H]3C[C@@H](C/C=C(\C)C[C@@H](C)/C=C/C=C4\CO[C@@H]5[C@H](O)C(C)=C[C@@H](C(=O)O3)[C@]45O)O2)O[C@H](/C(C)=C/C(C)C)[C@H]1C | 2.63 | 11.2 µM | 17.1 | 34.4 | 8.9 | 22.2 µM | 11.2 | 24.9 µM | 4.45 | 15.8 µM | 5.44 | 19 µM | 15.2 | 29.3 µM | 18.7 | 35.3 | 16.4 | 30.6 µM | 11.5 | 23.9 µM
